Experimental data as given in ChEMBL document CHEMBL1201862, “PubChem BioAssay data set” (2004).
Where “and” joins values, the source holds several entries; their conditions need not be identical. Equal entries are not always repeated.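 Following 48 hours of exposure in 96-well plates, responses at five concentrations were used to interpolate endpoints linearly. GI50 marks 50% less growth.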 Calls of active or inactive are those of the source. No stated cut-off is given here; in the data, active = GI50 up to about 1.1 µM and inactive = higher.

Experiments:
Assay in all cases: NCI tumour cell line growth inhibition, 48 h
786-0 = system: 786-0
A498 = system: A498
A549 = system: A549
ACHN = system: ACHN
CAKI-1 = system: CAKI-1
CCRF-CEM = system: CCRF-CEM
COLO 205 = system: COLO 205
DU-145 = system: DU-145
EKVX = system: EKVX
HCC 2998 = system: HCC 2998
HCT-116 = system: HCT-116
HCT-15 = system: HCT-15
HL-60 = system: HL-60
HOP-62 = system: HOP-62
HOP-92 = system: HOP-92
HT-29 = system: HT-29
Hs-578T = system: Hs-578T
IGROV-1 = system: IGROV-1
K562 = system: K562
KM12 = system: KM12
LOX IMVI = system: LOX IMVI
M14 = system: M14
MCF7 = system: MCF7
MDA-MB-231 = system: MDA-MB-231
MDA-MB-435 = system: MDA-MB-435
MDA-N = system: MDA-N
MOLT-4 = system: MOLT-4
Malme-3M = system: Malme-3M
NCI-H226 = system: NCI-H226
NCI-H23 = system: NCI-H23
NCI-H460 = system: NCI-H460
NCI-H522 = system: NCI-H522
NCI/ADR-RES = system: NCI/ADR-RES
OVCAR-3 = system: OVCAR-3
OVCAR-4 = system: OVCAR-4
OVCAR-5 = system: OVCAR-5
OVCAR-8 = system: OVCAR-8
PC-3 = system: PC-3
RPMI-8226 = system: RPMI-8226
RXF 393 = system: RXF 393
SF-268 = system: SF-268
SF-295 = system: SF-295
SF-539 = system: SF-539
SK-MEL-28 = system: SK-MEL-28
SK-MEL-2 = system: SK-MEL-2
SK-MEL-5 = system: SK-MEL-5
SK-OV-3 = system: SK-OV-3
SN12C = system: SN12C
SNB-19 = system: SNB-19
SNB-75 = system: SNB-75
SR = system: SR
SW-620 = system: SW-620
T47D = system: T47D
TK-10 = system: TK-10
U-251 = system: U-251
UACC-257 = system: UACC-257
UACC-62 = system: UACC-62
UO-31 = system: UO-31
BT-549 = system: BT-549

COc1cnc2cc(C(=O)O)c3ccccc3c2c1
GI50 (786-0): > 100 µM (inactive)
GI50 (A498): > 100 µM (inactive)
GI50 (A549): > 100 µM (inactive)
GI50 (ACHN): > 100 µM (inactive)
GI50 (CAKI-1): > 100 µM (inactive)
GI50 (CCRF-CEM): > 100 µM (inactive)
GI50 (COLO 205): > 100 µM (inactive)
GI50 (DU-145): > 100 µM (inactive)
GI50 (EKVX): > 100 µM (inactive)
GI50 (HCC 2998): > 100 µM (inactive)
GI50 (HCT-116): > 100 µM (inactive)
GI50 (HCT-15): > 100 µM
GI50 (HL-60): > 100 µM (inactive)
GI50 (HOP-62): > 100 µM (inactive)
GI50 (HOP-92): > 100 µM (inactive)
GI50 (HT-29): > 100 µM (inactive)
GI50 (Hs-578T): > 100 µM (inactive)
GI50 (IGROV-1): > 100 µM (inactive)
GI50 (K562): > 100 µM (inactive)
GI50 (KM12): > 100 µM (inactive)
GI50 (LOX IMVI): > 100 µM (inactive)
GI50 (M14): 92.5 µM (inactive)
GI50 (MCF7): > 100 µM (inactive)
GI50 (MDA-MB-231): > 100 µM (inactive)
GI50 (MDA-MB-435): > 100 µM (inactive)
GI50 (MDA-N): > 100 µM (inactive)
GI50 (MOLT-4): > 100 µM (inactive)
GI50 (Malme-3M): > 100 µM (inactive)
GI50 (NCI-H226): > 100 µM (inactive)
GI50 (NCI-H23): > 100 µM (inactive)
GI50 (NCI-H460): > 100 µM (inactive)
GI50 (NCI-H522): > 100 µM (inactive)
GI50 (NCI/ADR-RES): > 100 µM (inactive)
GI50 (OVCAR-3): > 100 µM (inactive)
GI50 (OVCAR-4): > 100 µM (inactive)
GI50 (OVCAR-5): > 100 µM (inactive)
GI50 (OVCAR-8): > 100 µM (inactive)
GI50 (PC-3): > 100 µM (inactive)
GI50 (RPMI-8226): 28.1 µM (inactive)
GI50 (RXF 393): > 100 µM (inactive)
GI50 (SF-268): > 100 µM (inactive)
GI50 (SF-295): > 100 µM (inactive)
GI50 (SF-539): > 100 µM (inactive)
GI50 (SK-MEL-28): > 100 µM (inactive)
GI50 (SK-MEL-2): > 100 µM (inactive)
GI50 (SK-MEL-5): > 100 µM (inactive)
GI50 (SK-OV-3): > 100 µM (inactive)
GI50 (SN12C): > 100 µM (inactive)
GI50 (SNB-19): > 100 µM (inactive)
GI50 (SNB-75): 58.3 µM (inactive)
GI50 (SR): > 100 µM (inactive)
GI50 (SW-620): > 100 µM (inactive)
GI50 (T47D): > 100 µM (inactive)
GI50 (TK-10): > 100 µM (inactive)
GI50 (U-251): > 100 µM (inactive)
GI50 (UACC-257): > 100 µM (inactive)
GI50 (UACC-62): > 100 µM (inactive)
GI50 (UO-31): > 100 µM (inactive)

N#Cc1c(-c2ccccc2)cc(-c2ccccc2)n(C2OC(CO)C(O)C(O)C2O)c1=S (configuration not stated)
GI50 (786-0): 55.5 µM (inactive) and 38.5 µM (inactive)
GI50 (A498): 19.7 µM (inactive)
GI50 (A549): 32.7 µM (inactive) and 46.1 µM (inactive)
GI50 (BT-549): 32.1 µM (inactive) and 25.6 µM (inactive)
GI50 (EKVX): > 100 µM (inactive)
GI50 (HCT-116): 37.4 µM (inactive) and 19.7 µM (inactive)
GI50 (HL-60): 36.2 µM (inactive) and 38.7 µM (inactive)
GI50 (HT-29): 23.1 µM (inactive) and 34.4 µM (inactive)
GI50 (Hs-578T): 21.1 µM (inactive) and 31.9 µM (inactive)
GI50 (IGROV-1): 45.5 µM (inactive) and 31 µM (inactive)
GI50 (KM12): 53.2 µM (inactive) and 48.2 µM (inactive)
GI50 (LOX IMVI): 15 µM (inactive) and 26.8 µM (inactive)
GI50 (MCF7): 27.5 µM (inactive) and 43.4 µM (inactive)
GI50 (MDA-MB-435): 21 µM (inactive) and 25.4 µM (inactive)
GI50 (MDA-N): 45 µM (inactive) and 23.2 µM (inactive)
GI50 (NCI-H23): 23.4 µM (inactive) and 29 µM (inactive)
GI50 (NCI-H460): 42.1 µM (inactive) and 28.6 µM (inactive)
GI50 (NCI/ADR-RES): 72.3 µM (inactive)
GI50 (OVCAR-8): 39.1 µM (inactive) and 32.7 µM (inactive)
GI50 (PC-3): 17.1 µM (inactive) and 29.6 µM (inactive)
GI50 (RPMI-8226): 29.2 µM (inactive) and 21.9 µM (inactive)
GI50 (RXF 393): 40.3 µM (inactive)
GI50 (SF-268): 34.2 µM (inactive) and 27.4 µM (inactive)
GI50 (SK-MEL-5): 30.4 µM (inactive) and 15.7 µM (inactive)
GI50 (SNB-19): 38 µM (inactive) and 33 µM (inactive)
GI50 (SNB-75): 33.2 µM (inactive) and 51.2 µM (inactive)
GI50 (SR): 30.8 µM (inactive) and 30.9 µM (inactive)
GI50 (SW-620): 37.2 µM (inactive) and 23.6 µM (inactive)
GI50 (TK-10): 70.3 µM (inactive)
GI50 (U-251): 18.8 µM (inactive)
GI50 (UO-31): 41.2 µM (inactive) and 34.3 µM (inactive)

Cn1c(=S)sc2nc3ccccc3n2c1=S
GI50 (786-0): 12.7 µM (inactive)
GI50 (A498): 19.3 µM (inactive)
GI50 (A549): 24.7 µM (inactive)
GI50 (ACHN): 11.3 µM (inactive)
GI50 (CAKI-1): 14.6 µM (inactive)
GI50 (CCRF-CEM): 3.52 µM (inactive)
GI50 (COLO 205): 9.51 µM (inactive)
GI50 (DU-145): 5.35 µM (inactive)
GI50 (EKVX): 17.3 µM (inactive)
GI50 (HCC 2998): 19.6 µM (inactive)
GI50 (HCT-116): 2.49 µM (inactive)
GI50 (HCT-15): 13.2 µM
GI50 (HL-60): 2.49 µM (inactive)
GI50 (HOP-62): 17 µM (inactive)
GI50 (HOP-92): 8.93 µM (inactive)
GI50 (HT-29): 5.81 µM (inactive)
GI50 (Hs-578T): 21.6 µM (inactive)
GI50 (IGROV-1): 12.8 µM (inactive)
GI50 (K562): 2 µM (inactive)
GI50 (KM12): 10.2 µM (inactive)
GI50 (LOX IMVI): 5.97 µM (inactive)
GI50 (M14): 4.47 µM (inactive)
GI50 (MCF7): 2.26 µM (inactive)
GI50 (MDA-MB-231): 19.3 µM (inactive)
GI50 (MDA-MB-435): 7.45 µM (inactive)
GI50 (MDA-N): 12.6 µM (inactive)
GI50 (MOLT-4): 5.36 µM (inactive)
GI50 (Malme-3M): 13.9 µM (inactive)
GI50 (NCI-H226): 21.4 µM (inactive)
GI50 (NCI-H23): 12.4 µM (inactive)
GI50 (NCI-H460): 9.86 µM (inactive)
GI50 (NCI-H522): 4.21 µM (inactive)
GI50 (NCI/ADR-RES): 13.4 µM (inactive)
GI50 (OVCAR-3): 12.1 µM (inactive)
GI50 (OVCAR-4): 16 µM (inactive)
GI50 (OVCAR-5): 15.3 µM (inactive)
GI50 (OVCAR-8): 14.3 µM (inactive)
GI50 (PC-3): 19.6 µM (inactive)
GI50 (RPMI-8226): 3.78 µM (inactive)
GI50 (RXF 393): 10.9 µM (inactive)
GI50 (SF-268): 10.9 µM (inactive)
GI50 (SF-295): 18.8 µM (inactive)
GI50 (SF-539): 12.8 µM (inactive)
GI50 (SK-MEL-28): 12.4 µM (inactive)
GI50 (SK-MEL-2): 51.1 µM (inactive)
GI50 (SK-MEL-5): 12.2 µM (inactive)
GI50 (SK-OV-3): 10.4 µM (inactive)
GI50 (SN12C): 10.6 µM (inactive)
GI50 (SNB-19): 13.7 µM (inactive)
GI50 (SNB-75): 16.5 µM (inactive)
GI50 (SR): 2.37 µM (inactive)
GI50 (SW-620): 12 µM (inactive)
GI50 (T47D): 9.84 µM (inactive)
GI50 (TK-10): 21.2 µM (inactive)
GI50 (U-251): 11.5 µM (inactive)
GI50 (UACC-257): 12.3 µM (inactive)
GI50 (UACC-62): 11.4 µM (inactive)
GI50 (UO-31): 5.55 µM (inactive)

Cc1ccc2ccccc2c1CC1S(=O)(=O)OCCOS1(=O)=O
GI50 (786-0): 16.4 µM (inactive)
GI50 (A549): 13.5 µM (inactive)
GI50 (ACHN): 14.4 µM (inactive)
GI50 (BT-549): 11.2 µM (inactive)
GI50 (CAKI-1): 12.1 µM (inactive)
GI50 (CCRF-CEM): 6.31 µM (inactive)
GI50 (COLO 205): 2.43 µM (inactive)
GI50 (DU-145): 11.9 µM (inactive)
GI50 (EKVX): 16.2 µM (inactive)
GI50 (HCC 2998): 4.15 µM (inactive)
GI50 (HCT-116): 13.1 µM (inactive)
GI50 (HCT-15): 18.2 µM
GI50 (HL-60): 2.12 µM (inactive)
GI50 (HOP-62): 12.6 µM (inactive)
GI50 (HT-29): 11.4 µM (inactive)
GI50 (K562): 9.12 µM (inactive)
GI50 (KM12): 12.1 µM (inactive)
GI50 (LOX IMVI): 7.94 µM (inactive)
GI50 (M14): 12.9 µM (inactive)
GI50 (MCF7): 7.69 µM (inactive)
GI50 (MDA-MB-231): 13.6 µM (inactive)
GI50 (MDA-MB-435): 8.67 µM (inactive)
GI50 (MDA-N): 9.48 µM (inactive)
GI50 (MOLT-4): 6.28 µM (inactive)
GI50 (Malme-3M): 11.5 µM (inactive)
GI50 (NCI-H23): 16 µM (inactive)
GI50 (NCI-H460): 9.57 µM (inactive)
GI50 (NCI/ADR-RES): 19.1 µM (inactive)
GI50 (OVCAR-3): 6.89 µM (inactive)
GI50 (OVCAR-4): 11.2 µM (inactive)
GI50 (OVCAR-5): 11.9 µM (inactive)
GI50 (OVCAR-8): 14.5 µM (inactive)
GI50 (PC-3): 11.2 µM (inactive)
GI50 (RPMI-8226): 11.4 µM (inactive)
GI50 (SF-295): 13.1 µM (inactive)
GI50 (SK-MEL-28): 16 µM (inactive)
GI50 (SK-MEL-2): 16.7 µM (inactive)
GI50 (SK-MEL-5): 12.8 µM (inactive)
GI50 (SN12C): 10.1 µM (inactive)
GI50 (SNB-19): 12.7 µM (inactive)
GI50 (SR): 7.64 µM (inactive)
GI50 (TK-10): 16.6 µM (inactive)
GI50 (U-251): 12 µM (inactive)
GI50 (UACC-257): 18.2 µM (inactive)
GI50 (UO-31): 14.1 µM (inactive)
